PMC7069228, “Targeted cell imaging properties of a deep red luminescent iridium(III) complex conjugated with a c-Myc signal peptide” (Chemical Science, 2020)
“Also recorded” adds a separate entry of the source.

Legend:
fish sperm DNA = test: Circular dichroism / UV-vis titration with fish sperm DNA (multiple independent binding sites model); conditions: Table S1; buffer 25 mM MOPS, 50 mM NaCl, 1 mM EDTA, 25 °C; n restricted to 3 base pairs
Protocol: In view of the nuclear localisation of Ir-CMYC, we also considered the potential role that affinity to DNA may play. To explore DNA binding of these Ir(III) complexes, UV-vis and circular dichroism titrations were carried out in buffer (25 mM MOPS, 50 mM NaCl, 1 mM EDTA) at 25 °C (Fig. S6, ESI ^†). To quantify the affinity of Ir-PYR for fish sperm DNA, titration curves at 400 and 493 nm were extracted from the circular dichroism data (Fig. 6). Similarly, for Ir-CMYC, titration curves at 373 and 493 nm were extracted from the circular dichroism data. The binding data were analysed globally (Table S1 ^†) in terms of the multiple independent binding sites model, explicitly taking into account the dilution of the iridium complex during the titration.[28] […]
MOPS buffer was prepared by dissolving MOPS (3-(N-morpholino)propanesulfonic acid, CAS[1132-61-2]), NaCl, and EDTA (ethylenediaminetetraacetic acid disodium salt dihydrate, CAS[6381-92-6]) (all obtained from Fisher and used as supplied) in deionised water (Elga Purelab Flex), adjusting the pH to 7.0 using a NaOH solution (pH of the buffer was determined using a Hanna Instruments pH210 microprocessor pH meter with a VWR simple junction universal combined pH/reference electrode) and making up the solution to 0.5 litre. […]

Human fibroblasts = test: Resazurin cell viability / metabolic activity assay; format: cell-based
Protocol: Fig. 3 Ir-PYR is cytotoxic at 20 μM and above. Human fibroblasts were incubated with various concentrations (0 or DMSO only, 5, 20, 50, 80, 100 μM) of either Ir-CMYC (A) or Ir-PYR (B) for 18 hours. Resazurin was added to cells, and after a 4 hour incubation the relative fluorescence intensity was measured (λex = 530 nm; λem = 580 nm). Ir-PYR treated cells (>20 μM) show reduced conversion of resazurin to the fluorescent resorufin indicating reduced cell viability.
Human derived skin fibroblast cells lines were obtained from the Coriell Cell Repository (GM05399, Camden, NJ). […]
Human fibroblasts were plated at 10 000 cells per well of a 96-well plate (Cellbind) and treated with the indicated concentrations of Ir-PYR, Ir-CMYC or DMSO. […] After a 4 hour incubation at 37 °C, fluorescence was determined using a Molecular Devices Spectramax Gemini EM plate reader (λex = […]; λem = 585 nm).
Human fibroblasts were plated at 10 000 cells per well of a 96-well plate and treated with the various concentrations of Ir-PYR, Ir-CMYC (5, 20, 80, 50, 100 μM) or the highest volume of equivalent of DMSO only. […] After a 4 hour incubation at 37 °C, fluorescence was determined using a Molecular Devices Spectramax Gemini EM plate reader (λex = 530 nm; λem = 580 nm).

human fibroblast cells [1] = test: Confocal fluorescence microscopy: cell uptake and localisation; format: cell-based; conditions: human fibroblasts
Protocol: The non-peptide functionalised complex Ir-PYR was investigated at a range of concentrations (1, 5, 20, 50, 80, 100 μM) with respect to cell uptake, localization and bioimaging capability. Human fibroblast cells were incubated with the different concentration solutions of Ir-PYR and imaged after 18 hours using confocal fluorescence microscopy. With long wavelength excitation and emission parameters (λex = 480 nm; λem = 645 nm) compatible with the spectral properties of the complex, it was clearly evident (Fig. 2) that the deep red emission of Ir-PYR was highly amenable to confocal fluorescence microscopy.
Human derived skin fibroblast cells lines were obtained from the Coriell Cell Repository (GM05399, Camden, NJ). Cells were cultured as monolayers in Dulbecco's modified Eagles medium (DMEM, Sigma, UK) supplemented with 10% fetal bovine serum (FBS, PAN-Biotech, Aidenbach, Germany) and 1% L-glutamine in a humidified incubator with 5% CO2 at 37 °C. For all imaging experiments low passage cells (P10-15) were seeded in 8-well chamber slides (Thistle, IB-80826) at a density of 15 000 cells in 250 μL of media.
Stock solutions were diluted to the stated concentrations in cell culture medium for incubation with fibroblasts. The equivalent amount of DMSO (<0.5% total volume) was added to controls for comparison. For nuclear visualisation cells were counterstained for 10 minutes with Hoechst 33342 diluted in cell culture media (1 μL mL^–1, Thermo Fisher, UK). For non-live imaging, cells were fixed in cold 4% paraformaldehyde for 10 min at room temperature and rinsed with PBS. For live-cell colocalization studies, cells were incubated with Ir-PYR for 12 hours prior to counterstaining with Hoechst 33342, and either LysoTracker-green DND-26 (L7528, Thermo Fisher, UK), or CYTO-ID Autophagy detection kit 2.0 (175–0050, Enzo Life Sciences, UK), as per the manufacturer's instructions. Briefly, LysoTracker was diluted in cell culture media to a final concentration of 200 nM and left for 15 min at 37 °C. […]

[2] = Longer term stability in water by UV-vis absorption spectra; format: physicochemical
Protocol: Our previous studies on Ir(III) complexes have shown that the use of substituted, cyclometalated quinoxaline ligands can impart red luminescence characteristics.[25] Firstly, the UV-vis absorption and emission spectral characteristics of Ir-PYR were determined. […] By inference, ligand-centred transitions are assumed to dominate below 350 nm, with both quinoxaline and bipyridine located π → π* contributing to the spectrum. At 350–450 nm it is likely that spin-allowed metal-to-ligand (5d-to-π*) charge transfers (^1MLCT) are present, with a weaker (ε < 1000 M^–1 cm^–1) shoulder feature at 450–600 nm, which is presumably due to a spin forbidden (S0 → T1) ^3MLCT absorption. […] To assess longer term stability in water, UV-vis absorption spectra of an aqueous solution (stored at 25 °C in light) of Ir-CMYC were recorded at 0, 24, 48 and 72 h (Fig. S4, ESI ^†).

[3] = Freeze-thaw stability of DMSO stock solutions; format: physicochemical; conditions: 10 mM stock in DMSO stored at –20 °C
human fibroblast cells [4] = test: Immunocytochemistry with cell membrane permeabilisation (retention of red emission); format: cell-based; conditions: fluorescence microscopy imaging
Excerpt: To investigate whether the NLS was cleaved off Ir-CMYC prior to translocation to the nucleus, an immunoassay was trialled using an antibody raised against c-Myc.

PAAKRVKLD [Ir-CMYC, NLS peptide … functionalised at N-terminus with cyclometalated iridium(III) quinoxaline/bipyridine complex]
K (fitted equilibrium constant, binding to FS DNA) (fish sperm DNA): 4.5 ± 1.0 103 M-1 | cytotoxicity (Human fibroblasts; 5–100 μM, 18 h incubation, resazurin): No cytotoxicity was observed; also recorded: essentially non-toxic | toxicity: changes in cellular morphology or mitochondrial activity (Human fibroblasts; 24 hours after incubation, resazurin cell death assay): no (or minimal) toxicity | uptake / staining at 1–5 μM (human fibroblast cells [1]; 1–5 μM, 18 h, confocal microscopy): No uptake or staining | concentration giving good cell uptake and nuclear localisation (human fibroblast cells [1]; 18–24 h incubation, confocal, co-localisation with Hoechst 33342, n = 2): 80 to 100 µM | staining at 20–50 μM (human fibroblast cells [1]; 20–50 μM, 18 h, confocal microscopy): weak punctate staining | UV-vis absorption spectra at 0, 24, 48 and 72 h (chemical stability in water) ([2]; aqueous solution stored at 25 °C in light, read-out UV-vis absorption): superimposable | solubility in water ([2]; inferred from superimposable UV-vis spectra of aqueous solution over 72 h, 25 °C): excellent solubility | effect of 3 freeze–thaw cycles on compound signal [3]: did not appear to reduce the compound signal | red emission in cells after immunocytochemistry procedure which permeabilises the cell membrane (human fibroblast cells [4]): no longer evident
